Tests used:
sugar beet = experiment: Test B preemergence/postemergence greenhouse plant response rating 0 to 10; type: in vivo, Beta vulgaris; settings: 0 to 10 scale
In short: (§1)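 Postemergence treatment of plants two to eighteen cm tall ran alongside preemergence treatment of planted seed, each using compound in a non-phytotoxic solvent.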

velvetleaf [1] = experiment: as above; type: in vivo, Abutilon theophrasti; settings: 0 to 10 scale
In short: as §1

chickweed = experiment: as above; type: in vivo, Stellaria media; settings: 0 to 10 scale
In short: as §1

corn [2] = experiment: as above; type: in vivo, Zea mays; settings: 0 to 10 scale
In short: as §1

wheat = experiment: Test C preemergence/postemergence greenhouse plant response rating 0 to 100; type: in vivo, Triticum aestivum; settings: POSTEMERGENCE; for Plant response rating, Wheat: 0 to 100 scale
In short: (§2)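 Compounds in non-phytotoxic solvent went onto sandy loam before emergence (seeded one day earlier) or onto plants at the one-to-four leaf stage. Duck salad was treated via flood water (~2.5 cm, maintained) over silt loam.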

soybean = experiment: Test B preemergence/postemergence greenhouse plant response rating 0 to 10; type: in vivo, Glycine max; settings: 0 to 10 scale
In short: as §1

velvetleaf [3] = experiment: Test C preemergence/postemergence greenhouse plant response rating 0 to 100; type: in vivo, Abutilon theophrasti; settings: POSTEMERGENCE; for Plant response rating, Velvetleaf: 0 to 100 scale
In short: as §2

lambsquarters = experiment: as above; type: in vivo, Chenopodium album; settings: POSTEMERGENCE; for Plant response rating Lambsquarters: 0 to 100 scale
In short: as §2

crabgrass = experiment: as above; type: in vivo, Digitaria sanguinalis; settings: POSTEMERGENCE; for Plant response rating, Crabgrass: 0 to 100 scale
In short: as §2

morningglory [4] = experiment: as above; type: in vivo, Ipomoea hederacea; settings: POSTEMERGENCE; for Plant response rating, Morningglory: 0 to 100 scale
In short: as §2

corn [5] = experiment: as above; type: in vivo, Zea mays; settings: POSTEMERGENCE; for Plant response rating, Corn: 0 to 100 scale
In short: as §2

morningglory [6] = experiment: Test B preemergence/postemergence greenhouse plant response rating 0 to 10; type: in vivo, Ipomoea hederacea; settings: 0 to 10 scale
In short: as §1

Fc1cc(Cl)c(OCCCl)cc1-c1nn2c(c1Cl)CCCC2 [Compound 49]
30: Plant response rating (0 to 100), Corn (corn [5]; Rate 16 g/ha)
20: Plant response rating (0 to 100), Wheat (wheat; Rate 16 g/ha) | Plant response rating, Crabgrass (crabgrass; 62 g/ha)
6: Plant response rating, Morningglory (morningglory [6]; Rate 200 g/ha, PREEMERGENCE)
3: Plant response rating, Corn (corn [2]; POSTEMERGENCE, Rate 50 g/ha) | Plant response rating, Soybean (soybean; Rate 200 g/ha, PREEMERGENCE)
2: Plant response rating, Corn (corn [2]; Rate 200 g/ha, PREEMERGENCE)
70: Plant response rating, Wheat (wheat; 250 g/ha)
9: Plant response rating, Sugar beet (sugar beet; PREEMERGENCE, Rate 50 g/ha) | Plant response rating, Velvetleaf (velvetleaf [1]; POSTEMERGENCE, Rate 50 g/ha) | Plant response rating, Chickweed (chickweed; POSTEMERGENCE, Rate 200 g/ha)
40: Plant response rating, Crabgrass (crabgrass; 250 g/ha) | Plant response rating (0 to 100), Morningglory (morningglory [4]; Rate 4 g/ha) | Plant response rating, Corn (corn [5]; 62 g/ha)
1: Plant response rating, Velvetleaf (velvetleaf [1]; Rate 200 g/ha, PREEMERGENCE) | Plant response rating, Morningglory (morningglory [6]; PREEMERGENCE, Rate 50 g/ha)
0: Plant response rating, Velvetleaf (velvetleaf [1]; PREEMERGENCE, Rate 50 g/ha) | Plant response rating, Chickweed (chickweed; PREEMERGENCE, Rate 50 g/ha) | Plant response rating, Corn (corn [2]; PREEMERGENCE, Rate 50 g/ha) | Plant response rating, Soybean (soybean; PREEMERGENCE, Rate 50 g/ha)
100: Plant response rating, Velvetleaf (velvetleaf [3]; 62 g/ha) | Plant response rating, Velvetleaf (velvetleaf [3]; 250 g/ha) | Plant response rating Lambsquarters (lambsquarters; 62 g/ha) | Plant response rating Lambsquarters (lambsquarters; 250 g/ha) | Plant response rating (0 to 100), Lambsquarters (lambsquarters; Rate 4 g/ha) | Plant response rating (0 to 100), Lambsquarters (lambsquarters; Rate 16 g/ha) | Plant response rating, Morningglory (morningglory [4]; 62 g/ha) | Plant response rating, Morningglory (morningglory [4]; 250 g/ha)
8: Plant response rating, Chickweed (chickweed; Rate 200 g/ha, PREEMERGENCE) | Plant response rating, Soybean (soybean; POSTEMERGENCE, Rate 50 g/ha) | Plant response rating, Soybean (soybean; Rate 200 g/ha, POSTEMERGENCE)
10: Plant response rating, Sugar beet (sugar beet; POSTEMERGENCE, Rate 50 g/ha) | Plant response rating, Sugar beet (sugar beet; Rate 200 g/ha, POSTEMERGENCE) | Plant response rating, Sugar beet (sugar beet; Rate 200 g/ha, PREEMERGENCE) | Plant response rating, Velvetleaf (velvetleaf [1]; Rate 200 g/ha, POSTEMERGENCE) | Plant response rating (0 to 100), Wheat (wheat; Rate 4 g/ha) | Plant response rating (0 to 100), Crabgrass (crabgrass; Rate 4 g/ha) | Plant response rating (0 to 100), Crabgrass (crabgrass; Rate 16 g/ha) | Plant response rating (0 to 100), Corn (corn [5]; Rate 4 g/ha) | Plant response rating, Morningglory (morningglory [6]; POSTEMERGENCE, Rate 50 g/ha) | Plant response rating, Morningglory (morningglory [6]; Rate 200 g/ha, POSTEMERGENCE)
90: Plant response rating (0 to 100), Velvetleaf (velvetleaf [3]; Rate 16 g/ha)
4: Plant response rating, Corn (corn [2]; POSTEMERGENCE, Rate 200 g/ha)
50: Plant response rating, Wheat (wheat; 62 g/ha) | Plant response rating (0 to 100), Velvetleaf (velvetleaf [3]; Rate 4 g/ha) | Plant response rating (0 to 100), Morningglory (morningglory [4]; Rate 16 g/ha) | Plant response rating, Corn (corn [5]; 250 g/ha)
7: Plant response rating, Chickweed (chickweed; POSTEMERGENCE, Rate 50 g/ha)

C=CCN1C(=O)COc2cc(F)c(-c3nn4c(c3Br)CCCC4)cc21 [Compound 41]
5: Plant response rating, Corn (corn [2]; POSTEMERGENCE, Rate 200 g/ha)
9: Plant response rating, Soybean (soybean; POSTEMERGENCE, Rate 50 g/ha) | Plant response rating, Morningglory (morningglory [6]; POSTEMERGENCE, Rate 50 g/ha)
85: Plant response rating (0 to 100), Lambsquarters (lambsquarters; Rate 16 g/ha)
100: Plant response rating, Velvetleaf (velvetleaf [3]; 62 g/ha) | Plant response rating, Velvetleaf (velvetleaf [3]; 125 g/ha) | Plant response rating (0 to 100), Velvetleaf (velvetleaf [3]; Rate 16 g/ha) | Plant response rating (0 to 100), Velvetleaf (velvetleaf [3]; Rate 31 g/ha) | Plant response rating Lambsquarters (lambsquarters; 62 g/ha) | Plant response rating Lambsquarters (lambsquarters; 125 g/ha) | Plant response rating (0 to 100), Lambsquarters (lambsquarters; Rate 31 g/ha) | Plant response rating, Morningglory (morningglory [4]; 62 g/ha) | Plant response rating, Morningglory (morningglory [4]; 125 g/ha) | Plant response rating (0 to 100), Morningglory (morningglory [4]; Rate 31 g/ha)
40: Plant response rating (0 to 100), Wheat (wheat; Rate 16 g/ha) | Plant response rating, Corn (corn [5]; 62 g/ha) | Plant response rating (0 to 100), Corn (corn [5]; Rate 16 g/ha) | Plant response rating (0 to 100), Corn (corn [5]; Rate 31 g/ha)
60: Plant response rating, Wheat (wheat; 125 g/ha)
10: Plant response rating, Sugar beet (sugar beet; POSTEMERGENCE, Rate 50 g/ha) | Plant response rating, Sugar beet (sugar beet; PREEMERGENCE, Rate 50 g/ha) | Plant response rating, Sugar beet (sugar beet; Rate 200 g/ha, POSTEMERGENCE) | Plant response rating, Sugar beet (sugar beet; Rate 200 g/ha, PREEMERGENCE) | Plant response rating, Velvetleaf (velvetleaf [1]; POSTEMERGENCE, Rate 50 g/ha) | Plant response rating, Velvetleaf (velvetleaf [1]; Rate 200 g/ha, POSTEMERGENCE) | Plant response rating, Velvetleaf (velvetleaf [1]; Rate 200 g/ha, PREEMERGENCE) | Plant response rating, Chickweed (chickweed; POSTEMERGENCE, Rate 50 g/ha) | Plant response rating, Chickweed (chickweed; POSTEMERGENCE, Rate 200 g/ha) | Plant response rating, Chickweed (chickweed; PREEMERGENCE, Rate 50 g/ha) | Plant response rating, Chickweed (chickweed; Rate 200 g/ha, PREEMERGENCE) | Plant response rating, Soybean (soybean; Rate 200 g/ha, POSTEMERGENCE) | Plant response rating (0 to 100), Crabgrass (crabgrass; Rate 16 g/ha) | Plant response rating (0 to 100), Crabgrass (crabgrass; Rate 31 g/ha) | Plant response rating, Morningglory (morningglory [6]; Rate 200 g/ha, POSTEMERGENCE)
7: Plant response rating, Morningglory (morningglory [6]; Rate 200 g/ha, PREEMERGENCE)
2: Plant response rating, Velvetleaf (velvetleaf [1]; PREEMERGENCE, Rate 50 g/ha) | Plant response rating, Corn (corn [2]; Rate 200 g/ha, PREEMERGENCE)
50: Plant response rating, Wheat (wheat; 62 g/ha) | Plant response rating (0 to 100), Wheat (wheat; Rate 31 g/ha) | Plant response rating, Corn (corn [5]; 125 g/ha)
0: Plant response rating, Corn (corn [2]; PREEMERGENCE, Rate 50 g/ha) | Plant response rating, Soybean (soybean; PREEMERGENCE, Rate 50 g/ha) | Plant response rating, Soybean (soybean; Rate 200 g/ha, PREEMERGENCE) | Plant response rating, Morningglory (morningglory [6]; PREEMERGENCE, Rate 50 g/ha)
20: Plant response rating, Crabgrass (crabgrass; 62 g/ha)
30: Plant response rating, Crabgrass (crabgrass; 125 g/ha)
70: Plant response rating (0 to 100), Morningglory (morningglory [4]; Rate 16 g/ha)

From US6358885B1, “Substituted phenylheterocyclic herbicides” (Mississippi State University, priority 1992, dated 2002)
